According to patent US20220347130A1, “ANTI-OBESITY COMPOSITION CONTAINING COLCHICINE AND METFORMIN AS EFFECTIVE AGENTS” (priority 2021, published 2022):
Where two headings read alike, the source gives them in different places.

What was measured:
[1] = type: in vivo, rats; conditions: oral once a day; for ALT / AST: HFD rats, 12 weeks, blood; for blood levels of AST and ALT (in words): HFD obesity-induced rats, colchicine 50, 100, 200 μg/kg and/or metformin 200 mg/kg, Table 1
Experimental: Finally, after the drugs were administered to the obesity-induced rats, changes in blood levels of aspartate aminotransferase (AST) and alanine transaminase (ALT) were measured and illustrated in Table 1 below.

[2] = HFD obesity-induced rats; colchicine 50, 100, 200 μg/kg and/or metformin 200 mg/kg, oral once a day; FIG. 1
Experimental: Low fat diet (LFD: containing 10 kcal % fat) or high fat diet (HFD: containing 60 kcal % fat) feed was taken autonomously for 12 weeks in 6-week-old C57BL/6J sp. male rats. The obesity-induced rats due to the intake of the HFD feed additionally took the HFD feed for 12 weeks and were administered with colchicine of 50, 100, and 200 μg/kg or metformin of 200 mg/kg alone or co-administered with the colchicine and the metformin. A control drug, Xenical (orlistat ingredient) was administered alone at 60 mg/kg. All drugs were orally administered once a day.
Changes in body weight of obesity-induced rats were measured according to single administration of colchicine or metformin and co-administration of colchicine and metformin, which were illustrated in FIG. 1.

SREBP-1c = test: Expression of obesity-related gene SREBP-1c in epididymal fat of obesity-induced rats; type: in vivo; conditions: epididymal fat of HFD obesity-induced rats; colchicine 50, 100, 200 μg/kg and/or metformin 200 mg/kg, oral once a day; FIG. 4
Experimental: (§1) Meanwhile, after the drugs were administered to the obesity-induced rats, the expression of obesity-related genes SREBP-1c and FAS was measured, and the results thereof were illustrated in FIGS. 4A and 4B.

[3] = system: FAS (fatty acid synthase); test: Expression of obesity-related gene FAS in epididymal fat of obesity-induced rats; type: in vivo; conditions: epididymal fat of HFD obesity-induced rats; colchicine 50, 100, 200 μg/kg and/or metformin 200 mg/kg, oral once a day; FIG. 4
Experimental: as §1

[4] = Epididymal fat weight of HFD obesity-induced rats; type: in vivo; conditions: for weight of epididymal fat: colchicine 50, 100, 200 μg/kg and/or metformin 200 mg/kg, oral once a day, FIG. 3; for effect of reducing the fat of the obesity-induced rats: summary of the results
Experimental: Next, after the drugs were administered to the obesity-induced rats, the weights of epididymal fat were measured and the results thereof was illustrated in FIG. 3.

CCCCCCCCCCC[C@@H](C[C@@H]1OC(=O)[C@H]1CCCCCC)OC(=O)[C@H](CC(C)C)NC=O [Orlistat, orlistat] showed an ALT ([1]; orlistat 60 mg/kg) of 175.20 ± 3.11 U/L and an AST ([1]; orlistat 60 mg/kg) of 203.31 ± 3.72 U/L.
In the case of CN(C)C(=N)N=C(N)N [Metformin, metformin], the “changes in body weight (increase in body weight induced by the HFD)” value [2] is reported as “slightly reduced”, the “expression of SREBP-1c” value (SREBP-1c) is reported as “slightly reduced” and the “expression of FAS” value [3] is reported as “slightly reduced”. The “weight of epididymal fat” value [4] was “slightly reduced”, the “effect of reducing the fat of the obesity-induced rats” value [4] was “a slight effect” and the “blood levels of AST and ALT (in words)” value [1] was “slightly reduced”. The ALT ([1]; metformin 200 mg/kg) was 156.41 ± 2.77 U/L and the AST ([1]; metformin 200 mg/kg) was 284.37 ± 2.78 U/L.
For COc1cc2c(c(OC)c1OC)-c1ccc(OC)c(=O)cc1[C@@H](NC(C)=O)CC2 [Colchicine, colchicine], the “changes in body weight (increase in body weight induced by the HFD)” value [2] was “not changed”, the “expression of SREBP-1c” value (SREBP-1c) was “not changed” and the “expression of FAS” value [3] was “not changed”. For the same compound, the “weight of epididymal fat” value [4] was “not changed”, the “effect of reducing the fat of the obesity-induced rats” value [4] was “almost no effect” and the “blood levels of AST and ALT (in words)” value [1] was “not changed”. The ALT ([1]; colchicine 50 μg/kg) was 175.08 ± 2.78 U/L, the AST ([1]; colchicine 50 μg/kg) was 372.26 ± 3.75 U/L and the ALT ([1]; colchicine 100 μg/kg) was 164.5 ± 2.11 U/L. The AST ([1]; colchicine 100 μg/kg) was 346.91 ± 3.90 U/L, the ALT ([1]; colchicine 200 μg/kg) was 157.38 ± 3.3 U/L and the AST ([1]; colchicine 200 μg/kg) was 309.24 ± 2.61 U/L.
